Experimental data reported in patent US20030232986A1, “Inhibitors of caspases” (Vertex Pharmaceuticals Incorporated, priority 1998, published 2003).

Columns and labels:
Caspase-1 = target: T1, Caspase-1 (Homo sapiens, UniProt P29466); experiment: Caspase-1 enzyme inhibition (Ki); assay type: biochemical; conditions: substrate Suc-YVAD-pNA 80 μM, 37° C., pH 7.5
T1 sequence (P29466 120-297 limits assumed): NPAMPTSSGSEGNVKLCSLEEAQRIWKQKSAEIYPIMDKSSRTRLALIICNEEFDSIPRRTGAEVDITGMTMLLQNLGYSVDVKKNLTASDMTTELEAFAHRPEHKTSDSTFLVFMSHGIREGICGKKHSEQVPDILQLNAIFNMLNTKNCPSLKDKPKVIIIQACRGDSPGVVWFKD
T1 sequence (P29466 317-404 limits assumed): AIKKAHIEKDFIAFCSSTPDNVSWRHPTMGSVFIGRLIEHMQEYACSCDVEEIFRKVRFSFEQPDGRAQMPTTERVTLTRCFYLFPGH
Method: Ki values for test compounds with the various caspases were obtained by the method of Margolin et al. (J. Biol. Chem., 272 pp. 7223-7228 (1997)). Assays were performed in 10 mM Tris (Sigma Corp, St Louis Mo.) pH 7.5, 1 mM Dithiothreitol (DTT, Research Organic INC, Cleveland, Ohio) and 0.1% CHAPS (Pierce, Rockford Ill.) at 37° C. For caspase-3, a solution of 8% glycerol was added to the assay buffer to improve enzyme stability. A 65 μL aliquot of the assay buffer and 5 μL aliquot of the appropriate dilutions of inhibitor in DMSO where pipetted into a 96 well plate, treated with 10 μL of caspase, then diluted in assay buffer (0.5-40 nM active protein by active site titration). A control containing DMSO but no compound was included for each determination. The plates were then incubated for 15 minutes at 37° C., before addition of the appropriate substrate (20 μL, final concentration 1-4×KM, final assay volume 100 μL) to initiate the reaction. Reaction rates were measured at 37° C. either by following the time dependant increase in absorbance at 405 nm (for the pNA substrates) or in fluorescence (Ex 390, Em 460) (for the AMC substrates). The rates obtained were plotted against inhibitor concentration and the data fit to the Morrison tight-binding equation for competitive inhibitors (Morrison, J. F., Biochem. Biophys. Acta, 185 pp. 269-286 (1969)). The substrates used for the individual assays were as follows:
Caspase-1 Suc-YVAD-pNA (Bachem, King of Prussia, Pa.) (final concentration in the assay 80 μM),

[1] = tested on: Human whole blood, IL-1β production; experiment: Whole blood assay for IL-1β production; assay type: cell-based; conditions: LPS-stimulated whole blood, IL-1β by ELISA
Method: The whole blood assay is a simple method for measuring the production of IL-1β (or other cytokines) and the activity of potential inhibitors. The complexity of this assay system, with its full complement of lymphoid and inflammatory cell types, spectrum of plasma proteins and red blood cells is an ideal in vitro representation of human in vivo physiologic conditions.
Set incubator or water bath at 30° C. Aliquot 0.25 ml of blood into 1.5 ml eppendorf tubes. Note: be sure to invert the whole blood sample tubes after every two aliquots. Differences in replicates may result if the cells sediment and are not uniformly suspended. Use of a positive displacement pipette will also minimize differences between replicate aliquots.
Prepare drug dilutions in sterile pyrogen-free saline by serial dilution. A dilution series which brackets the apparent Ki for a test compound determined in an ICE inhibition assay is generally used for the primary compound screen. For extremely hydrophobic compounds, prepare compound dilutions in fresh plasma obtained from the same blood donor or in PBS-containing 5% DMSO to enhance solubility.
Add 25 μl test compound dilution or vehicle control and gently mix the sample. Then add 5.0 μl LPS solution (250 ng/ml stocked prepared fresh: 5.0 ng/ml final concentration LPS), and mix again. Incubate the tubes at […] in a water bath for 16-18 hr with occasional mixing. Alternatively, the tubes can be placed in a rotator set at 4 rpm for the same incubation period. This assay should be set up in duplicate or triplicate with the following controls: negative control—no LPS; positive control—no test inhibitor; vehicle control—the highest concentration of DMSO or compound solvent used in the experiment. Additional saline is added to all control tubes to normalize volumes for both control and experimental whole blood test samples.
After the incubation period, whole blood samples are centrifuged for 10 minutes at ^˜2000 rpm in the microfuge, plasma is transferred to a fresh microfuge tube and centrifuged at 1000×g to pellet residual platelets if necessary. Plasma samples may be stored frozen at −70° C. prior to assay for cytokine levels by ELISA.
R & D Systems (614 McKinley Place N.E. Minneapolis, Minn. 55413) Quantikine kits may be used for measurement of IL-1β and TNF-α. The assays are performed according to the manufacture's directions. IL-1β levels of ^˜1-5 ng/ml in positive controls among a range of individuals may be observed. A 1:200 dilution of plasma for all samples is usually sufficient for experiments for ELISA results to fall on the linear range of the ELISA standard curves. It may be necessary to optimize standard dilutions if you observe differences in the whole blood assay. Nerad, J. L. et al., J. Leukocyte Biol., 52, pp. 687-692 (1992).

Ki (Caspase-1) [nM]	IC50 [1] [nM]	Compound
< 10	2500 to 7500	CNc1ccc(C(=O)N[C@@H](C)C(=O)N2CCC[C@H]2C(=O)N[C@H](C=O)CC(=O)O)cc1Cl [Example 7aa]
10 to 1000	2500 to 7500	C[C@H](NC(=O)c1cccc(C#N)c1)C(=O)N1CCC[C@H]1C(=O)N[C@H](C=O)CC(=O)O [Example 7ad]
< 10	2500 to 7500	C[C@H](NC(=O)c1cccc(Cl)c1)C(=O)N1CCC[C@H]1C(=O)N[C@H](C=O)CC(=O)O [Example 7ah]
< 10	2500 to 7500	C[C@H](NC(=O)c1cc(Cl)cc(Cl)c1)C(=O)N1CCC[C@H]1C(=O)N[C@H](C=O)CC(=O)O [Example 7ai]
< 10	> 7500	C[C@H](NC(=O)c1ccc(Cl)c(Cl)c1)C(=O)N1CCC[C@H]1C(=O)N[C@H](C=O)CC(=O)O [Example 7aj]
< 10	2500 to 7500	C[C@H](NC(=O)c1ccc(F)c(Cl)c1)C(=O)N1CCC[C@H]1C(=O)N[C@H](C=O)CC(=O)O [Example 7ak]
< 10	2500 to 7500	C[C@H](NC(=O)c1cccc(C(F)(F)F)c1)C(=O)N1CCC[C@H]1C(=O)N[C@H](C=O)CC(=O)O [Example 7am]
< 10	2500 to 7500	Cc1ccc(Cl)cc1C(=O)N[C@@H](C)C(=O)N1CCC[C@H]1C(=O)N[C@H](C=O)CC(=O)O [Example 7an]
10 to 1000	2500 to 7500	Cc1c(Cl)cccc1C(=O)N[C@@H](C)C(=O)N1CCC[C@H]1C(=O)N[C@H](C=O)CC(=O)O [Example 7ao]
10 to 1000	> 7500	C[C@H](NC(=O)C(=O)c1ccccc1)C(=O)N1CCC[C@H]1C(=O)N[C@H](C=O)CC(=O)O [Example 7ap]
< 10	< 2500	CC(C)[C@H](NC(=O)c1ccc(N)c(Cl)c1)C(=O)N1CC(F)(F)C[C@H]1C(=O)N[C@H](C=O)CC(=O)O [Example 27d]
10 to 1000	< 2500	CC[C@H](NC(=O)c1ccc(N)c(Cl)c1)C(=O)N1CC(F)(F)C[C@H]1C(=O)N[C@H](C=O)CC(=O)O [Example 27e]
10 to 1000	2500 to 7500	C[C@H](NC(=O)c1cccc2ccccc12)C(=O)N1CC(F)(F)C[C@H]1C(=O)N[C@H](C=O)CC(=O)O [Example 27f]
< 10	2500 to 7500	C[C@H](NC(=O)c1cc(Cl)c(O)c(Cl)c1)C(=O)N1CC(F)(F)C[C@H]1C(=O)N[C@H](C=O)CC(=O)O [Example 27g]
10 to 1000	2500 to 7500	COc1c(Cl)cc(C(=O)N[C@@H](C)C(=O)N2CC(F)(F)C[C@H]2C(=O)N[C@H](C=O)CC(=O)O)cc1Cl [Example 27h]
10 to 1000	2500 to 7500	COc1c(C)cc(C(=O)N[C@@H](C)C(=O)N2CC(F)(F)C[C@H]2C(=O)N[C@H](C=O)CC(=O)O)cc1C [Example 27i]
10 to 1000	2500 to 7500	C[C@H](NC(=O)c1nccc2ccccc12)C(=O)N1CC(F)(F)C[C@H]1C(=O)N[C@H](C=O)CC(=O)O [Example 27l]
10 to 1000	2500 to 7500	C[C@H](NC(=O)c1cccc(C(F)(F)F)c1)C(=O)N1CC(F)(F)C[C@H]1C(=O)N[C@H](C=O)CC(=O)O [Example 27m]
10 to 1000	< 2500	C[C@H](NC(=O)c1ccc2[nH]cnc2c1)C(=O)N1CC(F)(F)C[C@H]1C(=O)N[C@H](C=O)CC(=O)O [Example 27n]
10 to 1000	< 2500	COc1ccc(C(=O)N[C@@H](C)C(=O)N[C@@H](C)C(=O)N[C@H](C=O)CC(=O)O)cc1 [Example 29s]
10 to 1000	2500 to 7500	C[C@H](NC(=O)c1ccc(N(C)C)c(Cl)c1)C(=O)N1CCC[C@H]1C(=O)N[C@H](C=O)CC(=O)O [Example 122m, 3-({1-[2-(3-Chloro-4-dimethylamino-benzoylamino)-propionyl]-pyrrolidine-2-carbonyl}-amino)-4-oxo-butyric acid]
< 10	2500 to 7500	C[C@H](NC(=O)c1c(F)c(F)c(N)c(F)c1F)C(=O)N1CCC[C@H]1C(=O)N[C@H](C=O)CC(=O)O [Example 122p, 3-({1-[2-(4-Amino-2,3,5,6-tetrafluoro-benzoylamino)-propionyl]-pyrrolidine-2-carbonyl}-amino)-4-oxo-butyric acid]
10 to 1000	2500 to 7500	C[C@H](NC(=O)c1ccc2ncccc2c1)C(=O)N1CCC[C@H]1C(=O)N[C@H](C=O)CC(=O)O [Example 122q, 4-Oxo-3-[(1-{2-[(quinoline-6-carbonyl)-amino]-propionyl}-pyrrolidine-2-carbonyl)-amino]-butyric acid]
10 to 1000	2500 to 7500	C[C@H](NC(=O)c1ccc(NC(=O)C(C)(C)C)c(Cl)c1)C(=O)N1CCC[C@H]1C(=O)N[C@H](C=O)CC(=O)O [Example 122s, 3-[(1-{2-[3-Chloro-4-(2,2-dimethyl-propionylamino)-benzoylamino]-propionyl}-pyrrolidine-2-carbonyl)-amino]-4-oxo-butyric acid]
10 to 1000	< 2500	CC(NC(=O)c1ccc(N)c(Cl)c1)C(=O)N1CC(F)CC1C(=O)NC(C=O)CC(=O)O (stereo not shown) [Example 123a, 3-({1-[2-(4-Amino-3-chloro-benzoylamino)-propionyl]-4-fluoro-pyrrolidine-2-carbonyl}-amino)-4-oxo-butyric acid]
10 to 1000	2500 to 7500	CC(=O)Nc1ccc(C(=O)NC(C)C(=O)N2CC(F)(F)CC2C(=O)NC(C=O)CC(=O)O)cc1Cl (stereo not shown) [Example 123b, 3-({1-[2-(4-Acetylamino-3-chloro-benzoylamino)-propionyl]-4,4-difluoro-pyrrolidine-2-carbonyl}-amino)-4-oxo-butyric acid]
> 1000		Nc1ccc(C(=O)NCC(=O)N2CCC[C@H]2C(=O)N[C@H](C=O)CC(=O)O)cc1Cl [Example G1, 3-({1-[(4-Amino-3-chloro-benzoylamino)-acetyl]-pyrrolidine-2-carbonyl}-amino)-4-oxo-butyric acid]
10 to 1000	2500 to 7500	Nc1ccc(C(=O)NCC(=O)N2CC(F)(F)C[C@H]2C(=O)N[C@H](C=O)CC(=O)O)cc1Cl [Example G2, 3-({1-[(4-Amino-3-chloro-benzoylamino)-acetyl]-4,4-difluoro-pyrrolidine-2-carbonyl}-amino)-4-oxo-butyric acid]
